This is an account of results in US11717557B2, “Use of PRG4 as an anti-inflammatory agent” (Lubris LLC, priority 2015, dated 2023).

Experiment [1] relates to NFκB nuclear translocation in RA-FLS. Put plainly: NFκB nuclear translocation after TNF-α stimulation of RA-FLS. It counts as cell-based. The note with it: TNF-α 5 ng/mL; rhPRG4 200 μg/mL or MG 132 3 μM; 24 hours; p<0.001. On the procedure:
RA-FLS (400,000 cells/well) were cultured and stimulated with TNF-α (5 ng/mL) and treated with rhPRG4 (200 μg/mL) or a commercially available NFκB translocation inhibitor MG 132 (3 μM; Tocris Bioscience) for 24 hours in serum free media. Cells were harvested and nuclear extraction was performed using a commercially available kit (Thermo scientific). Total protein was measured using a micro bicinchonic acid (BCA) kit (Thermo scientific) and 3 μg of nuclear extract of each experimental group were used. The p50 subunit of NFκB was detected in the nuclear extract using a commercially available NFκB DNA binding assay kit (Abcam). Data is presented as the number of fold change in NFκB nuclear levels compared to untreated control. To evaluate whether inhibition of NFκB translocation by rhPRG4 is CD44 dependent, the above experiment was repeated in the presence or absence of IM7 CD44 antibody (1:1,000 dilution). Data represents the average of 3 independent experiments with at least triplicate wells per treatment.

Experiment [2] is described as follows: Serum cytokine levels after DMM surgery and intraarticular lubricin. It is filed as in vivo, rat. Particulars: single intraarticular dose 200 μg/kg seven days after DMM surgery; samples 3 weeks after dose; versus saline. How it is done:
In order to determine if lubricin could modulate pro-inflammatory cytokine levels in vivo, a rat model was used. Nine rats were subject to surgery to destabilize the medial meniscus (DMM surgery). Seven days after surgery, each rat received a single intraarticular dose of lubricin of 200 μg/kg. Control rats received an injection of an equal volume of saline. Cytokine levels in serum samples taken from the […] were compared with […] who received surgery but no dose of lubricin post-surgery. Samples were drawn 3 weeks after the dose of lubricin was administered and analyzed using the Luminex Multiplex platform. The results are shown in FIG. 13 where the measured levels of EPO, IL-13, IL-10, IL-18, IL-1α, IL-2, MCSF, IL-1β, IL-4, IFN-γ, MIP-3α, GMCSF, IL-7, TNF-α, VEGF, MCP-1, IL-5, G-CSF, RANTES, IL-6, GRO, IL-17α, and IL-12p70 are shown. The levels of IL-18, MCSF, MCP-1, RANTES, and GRO were all reduced in rats receiving lubricin as compared to rats that were injected with saline alone.

Regarding “rhPRG4: full-length recombinant human PRG4 (lubricin) glycoprotein produced by CHO-M cells (Lubris), Mr≅240 KDa”, the “NFκB nuclear translocation compared to TNF-α-treated RA-FLS” value in experiment [1] is “significantly reduced”. Also, the “serum levels of IL-18, MCSF, MCP-1, RANTES and GRO” value in experiment [2] is “reduced”.
